Source: ChEMBL document CHEMBL4118099, “Targeting Transcriptional Enhanced Associate Domains (TEADs)” (J Med Chem, 2018)

What was measured:
[1] = biological target: T1, Transcriptional enhancer factor TEF-1 (Homo sapiens, UniProt P28347); assay: Binding affinity to human GST-tagged TEAD1 (194 to 411) expressed in Escherichia coli BL21(DE3) by SPR assay
[2] = biological target: T1, Transcriptional enhancer factor TEF-1; assay: Inhibition of human His-tagged YAP (50 to 171 residues) interaction with human GST-tagged TEAD1 (194 to 411) expressed in Escherichia coli BL21(DE3) incubated for 30 mins measured by SPR assay
[3] = biological target: Transcriptional enhancer factor TEF-3 (Homo sapiens, UniProt Q15561); assay: Binding affinity to human His-tagged TEAD4 YBD (217 to 434 residues) expressed in Escherichia coli BL21(DE3) after 30 mins by ITC assay
Chain of Transcriptional enhancer factor TEF-3 (Q15561 whole entry, the tested form may be a part): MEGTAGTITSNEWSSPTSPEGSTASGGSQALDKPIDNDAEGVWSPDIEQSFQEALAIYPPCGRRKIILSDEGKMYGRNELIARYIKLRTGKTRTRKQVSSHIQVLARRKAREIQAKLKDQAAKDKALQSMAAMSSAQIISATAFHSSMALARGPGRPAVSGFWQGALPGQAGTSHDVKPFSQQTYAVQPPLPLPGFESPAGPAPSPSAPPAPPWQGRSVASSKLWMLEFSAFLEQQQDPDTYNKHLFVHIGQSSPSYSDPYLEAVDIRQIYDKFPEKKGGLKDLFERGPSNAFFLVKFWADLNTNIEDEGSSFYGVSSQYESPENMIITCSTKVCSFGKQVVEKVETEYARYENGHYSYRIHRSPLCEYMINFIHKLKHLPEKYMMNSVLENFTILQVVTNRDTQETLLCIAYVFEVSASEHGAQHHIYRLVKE

T1 sequence (P28347 whole entry, the tested form may be a part): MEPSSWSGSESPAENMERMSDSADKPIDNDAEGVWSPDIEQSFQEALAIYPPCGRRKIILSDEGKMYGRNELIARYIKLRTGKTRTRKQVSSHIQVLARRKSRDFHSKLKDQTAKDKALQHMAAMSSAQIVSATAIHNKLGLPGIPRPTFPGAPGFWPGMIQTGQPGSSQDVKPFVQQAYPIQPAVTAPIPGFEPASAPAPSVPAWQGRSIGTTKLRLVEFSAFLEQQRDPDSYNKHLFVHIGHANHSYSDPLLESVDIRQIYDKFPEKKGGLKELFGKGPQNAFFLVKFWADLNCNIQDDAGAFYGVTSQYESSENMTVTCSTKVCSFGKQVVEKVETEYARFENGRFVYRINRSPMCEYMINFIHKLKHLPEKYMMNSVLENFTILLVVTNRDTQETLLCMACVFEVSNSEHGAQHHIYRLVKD

Compound | Kd [1] [nM] | IC50 [2] [nM] | Kd [3] [nM]
CCCC[C@@H]1NC(=O)[C@H](CCCCN)NC(=O)[C@H](CCCNC(=N)N)NC(=O)[C@H](CC(C)C)NC(=O)[C@@H](NC(=O)[C@H](Cc2cccc(Cl)c2)N[C@H](C)[C@@H]2CCCN2C(=O)[C@@H](NC(C)=O)C(C)C)CCSSC[C@@H](C(=O)N[C@@H](CCCCN)C(=O)N2CCC[C@H]2C(=O)N2CCC[C@H]2C(=O)N[C@@H](CCC(=O)O)C(N)=O)NC(=O)[C@@H](Cc2ccccc2)NC(=O)[C@H](CO)NC(=O)[C@H](C)NC(=O)[C@@H]2CCCN2C1=O | 15 | 25 | –
O=C(O)c1cccnc1Nc1cccc(C(F)(F)F)c1 [NIFLUMIC ACID] | – | – | 28000
